# Measured values taken from patent US6864286B2, “Inhibitors of the EGF-receptor tyrosine kinase and methods for their use” (Parker Hughes Institute, priority 1998, dated 2005).
# Entries after “also recorded” stand apart in the source; their conditions may differ.
# Key:
# [1] = molecular target: T1, JAK1 (Homo sapiens, UniProt P23458); experiment: Cell-free JAK1 immune complex kinase assay; assay type: biochemical; details: for effect on enzymatic activity of JAK1: at concentrations as high as 350 μM
# T1 construct: made in house; host or cells: Sf21 insect cells (baculovirus)
# T1 sequence (P23458 whole entry, species assumed): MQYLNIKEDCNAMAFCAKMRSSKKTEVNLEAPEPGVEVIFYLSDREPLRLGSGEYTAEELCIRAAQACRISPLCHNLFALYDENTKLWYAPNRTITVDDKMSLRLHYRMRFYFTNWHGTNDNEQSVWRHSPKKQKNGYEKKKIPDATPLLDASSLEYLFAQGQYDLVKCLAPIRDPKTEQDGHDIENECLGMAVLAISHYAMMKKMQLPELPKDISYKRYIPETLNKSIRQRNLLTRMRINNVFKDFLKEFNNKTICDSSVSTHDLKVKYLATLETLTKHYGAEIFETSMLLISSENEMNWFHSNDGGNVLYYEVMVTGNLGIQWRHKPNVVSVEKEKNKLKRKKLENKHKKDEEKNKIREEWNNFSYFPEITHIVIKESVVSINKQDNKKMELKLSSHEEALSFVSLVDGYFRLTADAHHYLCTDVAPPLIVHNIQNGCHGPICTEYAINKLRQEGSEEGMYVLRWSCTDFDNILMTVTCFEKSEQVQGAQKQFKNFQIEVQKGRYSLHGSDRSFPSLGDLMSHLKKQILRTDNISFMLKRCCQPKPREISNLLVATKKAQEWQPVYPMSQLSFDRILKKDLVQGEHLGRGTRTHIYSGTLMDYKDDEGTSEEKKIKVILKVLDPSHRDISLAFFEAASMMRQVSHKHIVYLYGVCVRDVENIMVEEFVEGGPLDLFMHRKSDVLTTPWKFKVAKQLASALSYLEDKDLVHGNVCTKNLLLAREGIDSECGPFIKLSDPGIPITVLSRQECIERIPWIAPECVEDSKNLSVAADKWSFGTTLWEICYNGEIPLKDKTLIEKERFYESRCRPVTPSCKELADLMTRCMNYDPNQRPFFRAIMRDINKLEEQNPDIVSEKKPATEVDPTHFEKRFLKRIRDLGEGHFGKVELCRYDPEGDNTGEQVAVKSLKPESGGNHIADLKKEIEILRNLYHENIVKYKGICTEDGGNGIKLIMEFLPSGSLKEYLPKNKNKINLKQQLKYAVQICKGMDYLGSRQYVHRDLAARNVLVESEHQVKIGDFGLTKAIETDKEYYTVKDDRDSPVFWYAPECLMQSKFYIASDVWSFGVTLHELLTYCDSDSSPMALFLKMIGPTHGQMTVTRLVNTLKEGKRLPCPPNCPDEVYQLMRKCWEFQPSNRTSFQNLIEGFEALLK
# Protocol: (§1) Immunoprecipitations, immune-complex protein kinase assays, and immunoblotting using the ECL chemiluminescence detection system (Amersham Life Sciences) were conducted as described previously (Vassilev, A., et al. J. Biol. Chem. 1998, in press; Goodman, P. A., et al. J. Biol. Chem. 1998, 273, 17742; Mahajan, S., et al. Mol. Cell. Biol. 1995, 15, 5304; Uckun, F. M., et al. Science 1996, 22, 1096).
# [2] = test system: MDA-MB-231 cells; experiment: Confocal laser scanning microscopy of treated cells; assay type: cell-based, human; details: MDA-MB-231, 100 μM, 24 hours, α-tubulin / TOTO-3 staining
# Protocol: Immunofluorescence was used to examine the morphologic features of breast cancer cells treated with LFM and its analogs. Before the experiment, cells were trypsinized from rapidly growing tissue culture flasks and seeded onto sterile 22 mm^2 coverslips in 6-well culture plates. Cells on coverslips were returned to the incubator for 24 hours prior to treatment. The following day, drugs were added from a stock solution made in DMSO to a final concentration of 100 μM. Final DMSO concentration was 0.1% in both test samples and controls. Cells were returned to a 37° C. incubator for 24 hours before further processing.
# At 24 hours, coverslips were fixed in −20° C. methanol for 15 minutes followed by a 15 minute incubation in phosphate buffered saline +0.1% Triton X-100(PBS-Tx). Coverslips were next incubated with a monoclonal antibody against α-tubulin (Sigma Chemical Co, St. Louis, Mo.) at a dilution of 1:1000 for 40 minutes in a humidified chamber at 37° C. Coverslips were washed for 15 minutes in PBS-Tx followed by a 40 min incubation with a goat anti-mouse IgG antibody conjugated to FITC (Amersham Corp., Arlington Heights, Ill.). The coverslips were again rinsed in PBS-Tx and incubated with 5 μM TOTO-3 (Molecular Probes, Eugene Oreg.) for 20 minutes to label the nuclear DNA. […]
# [3] = molecular target: T2, BTK (Homo sapiens, UniProt Q06187); experiment: Cell-free BTK immune complex kinase assay; assay type: biochemical; details: for effect on enzymatic activity of BTK: at concentrations as high as 350 μM
# T2 construct: made in house; host or cells: Sf21 insect cells (baculovirus)
# T2 sequence (Q06187 whole entry, species assumed): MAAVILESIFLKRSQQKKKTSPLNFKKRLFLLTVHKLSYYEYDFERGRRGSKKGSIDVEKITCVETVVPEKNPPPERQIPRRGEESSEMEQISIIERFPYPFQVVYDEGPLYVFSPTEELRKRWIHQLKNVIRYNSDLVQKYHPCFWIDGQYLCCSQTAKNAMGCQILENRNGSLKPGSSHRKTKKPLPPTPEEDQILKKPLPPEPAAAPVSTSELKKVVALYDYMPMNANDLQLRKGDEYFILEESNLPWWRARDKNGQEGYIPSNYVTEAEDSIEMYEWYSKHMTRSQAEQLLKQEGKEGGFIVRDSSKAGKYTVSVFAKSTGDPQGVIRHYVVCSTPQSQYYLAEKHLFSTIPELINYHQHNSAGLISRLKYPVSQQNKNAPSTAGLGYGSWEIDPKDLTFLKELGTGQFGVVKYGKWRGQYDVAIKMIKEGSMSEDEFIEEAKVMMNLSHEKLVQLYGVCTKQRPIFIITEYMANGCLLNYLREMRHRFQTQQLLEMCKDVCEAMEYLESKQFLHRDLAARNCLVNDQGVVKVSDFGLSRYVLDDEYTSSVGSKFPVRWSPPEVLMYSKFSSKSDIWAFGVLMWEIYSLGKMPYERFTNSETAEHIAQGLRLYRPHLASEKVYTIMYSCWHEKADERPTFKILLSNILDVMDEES
# Protocol: as §1
# [4] = molecular target: T3, insulin receptor kinase (IRK) (Homo sapiens, UniProt P06213); experiment: Cell-free IRK immune complex kinase assay; assay type: biochemical; details: for effect on enzymatic activity of IRK: at concentrations as high as 350 μM, IRK from HepG2 cells
# T3 construct: IRK was immunoprecipitated from the lysates with an anti-IRb antibody; endogenous in cells; host or cells: HepG2 human hepatoma cells (ATCC)
# T3 sequence (P06213 763-1382 limits assumed): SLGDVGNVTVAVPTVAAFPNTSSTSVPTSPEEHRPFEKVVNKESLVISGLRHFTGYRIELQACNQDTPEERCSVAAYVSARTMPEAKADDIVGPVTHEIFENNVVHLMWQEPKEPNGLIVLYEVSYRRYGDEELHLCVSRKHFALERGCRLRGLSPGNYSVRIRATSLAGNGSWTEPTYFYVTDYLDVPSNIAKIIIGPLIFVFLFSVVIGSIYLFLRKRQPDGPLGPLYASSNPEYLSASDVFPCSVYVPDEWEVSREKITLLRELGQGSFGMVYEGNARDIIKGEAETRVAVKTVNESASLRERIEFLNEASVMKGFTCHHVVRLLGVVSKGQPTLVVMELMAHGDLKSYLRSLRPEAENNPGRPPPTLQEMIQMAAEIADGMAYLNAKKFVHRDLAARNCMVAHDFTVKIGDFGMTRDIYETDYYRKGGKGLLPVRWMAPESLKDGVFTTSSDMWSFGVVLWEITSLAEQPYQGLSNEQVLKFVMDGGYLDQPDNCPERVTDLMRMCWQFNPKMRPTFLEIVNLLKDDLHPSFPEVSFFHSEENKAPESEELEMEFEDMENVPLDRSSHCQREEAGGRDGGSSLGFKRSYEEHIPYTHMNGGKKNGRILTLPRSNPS
# T3 sequence (P06213 28-758 partner limits assumed): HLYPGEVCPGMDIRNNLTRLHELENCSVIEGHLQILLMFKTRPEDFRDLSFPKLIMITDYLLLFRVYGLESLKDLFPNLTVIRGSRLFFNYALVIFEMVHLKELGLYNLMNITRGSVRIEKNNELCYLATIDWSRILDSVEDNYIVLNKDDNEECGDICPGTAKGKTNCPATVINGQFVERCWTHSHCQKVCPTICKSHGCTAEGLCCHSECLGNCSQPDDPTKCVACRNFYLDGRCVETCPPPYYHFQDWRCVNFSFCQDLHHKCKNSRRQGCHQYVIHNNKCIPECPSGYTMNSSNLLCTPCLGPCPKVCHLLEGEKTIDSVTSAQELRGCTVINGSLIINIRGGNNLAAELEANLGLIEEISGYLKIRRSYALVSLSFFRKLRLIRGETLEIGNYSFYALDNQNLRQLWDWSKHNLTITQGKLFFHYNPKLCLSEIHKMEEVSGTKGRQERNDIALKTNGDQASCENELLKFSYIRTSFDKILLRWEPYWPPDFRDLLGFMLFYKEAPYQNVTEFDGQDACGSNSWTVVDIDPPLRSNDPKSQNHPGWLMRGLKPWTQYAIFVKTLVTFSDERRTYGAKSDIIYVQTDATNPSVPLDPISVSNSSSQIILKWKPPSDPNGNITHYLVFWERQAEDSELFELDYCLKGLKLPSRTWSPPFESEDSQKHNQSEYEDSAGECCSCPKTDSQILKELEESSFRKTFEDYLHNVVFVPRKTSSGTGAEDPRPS
# Protocol: as §1
# Horse radish peroxidase-conjugated sheep anti-mouse, donkey anti-rabbit secondary antibodies and ECL reagents were purchased from Amersham (Oakbrook, Ill.). For insulin receptor kinase (IRK) assays, HepG2 human hepatoma cells grown to approximately 80% confluency were washed once with serum-free DMEM and starved for 3 hour at 37° in a CO2 incubator. Subsequently, cells were stimulated with insulin (Eli Lilly, cat# CP-410;10 units/ml/10×10^6 cells) for 10 minutes at room temperature. Following this IRK activation step, cells were washed once with serum free medium, lysed in NP-40 buffer and IRK was immunoprecipitated from the lysates with an anti-IRb antibody (Santa Cruz, Cat.# sc-711, polyclonal IgG). Prior to performing the immunecomplex kinase assays, the beads were equilibrated with the kinase buffer (30 mM Hepes pH 7.4, 30 mM NaCl, 8 mM MgCl2, 4 mM MnCl2).
"IC50 ([1]; JAK1, cell-free, read-out: Inhibition IC50)",effect on enzymatic activity of JAK1 [1],"IC50 ([3]; BTK, cell-free, read-out: Inhibition IC50)",effect on enzymatic activity of BTK [3],"IC50 ([4]; IRK, cell-free, read-out: Inhibition IC50)",SMILES,morphology and microtubular organization of treated cells [2],effect on enzymatic activity of IRK [4]
> 175 µM,did not affect the enzymatic activity,> 175 µM,did not affect the enzymatic activity,> 350 µM,"C/C(O)=C(\C#N)C(=O)Nc1ccc(OC(F)(F)F)cc1 [LFM-A12, α-Cyano-β-hydroxy-β-methyl-N-[4-(trifluoromethoxy)phenyl]-propenamide]",much smaller and had an abnormal shape with large cytoplasmic vacuoles; also recorded: marked shrinkage with disruption of microtubules,did not affect the enzymatic activity; also recorded: lack of inhibition
–,did not affect the enzymatic activity,–,did not affect the enzymatic activity,–,"CC(O)=C(C#N)C(=O)Nc1ccc(C(F)(F)F)cc1 [LFM, α-Cyano-β-hydroxy-β-methyl-N-[4-(trifluoromethyl)phenyl]-propenamide, reference compound]",–,did not affect the enzymatic activity; also recorded: lack of inhibition
